Experiment: Bioavailability of sildenafil from film with water soluble inert filler
Assay type: in vivo
Settings: incorporated in a film with water soluble inert filler xylitol
Excerpt: A further parameter affecting the uptake of an active agent or combination of active agents from the quick dissolving oral mucosal drug delivery devices of the present invention is the manner in which the active agent or combination of active agents is dispersed in the delivery device. For example, the active agent or combination of active agents may be dispersed as colloidal particles or be microencapsulated within the delivery device or alternatively may be mixed throughout the delivery device as a reagent during casting. In another example, the active agent can form a solid dispersion with a water soluble inert filler for purposes of increasing the solubility of the active agent when released from the inner layer thereby enhancing bioavailability of the active agent. […] In another example, a bitter active agent can form saliva insoluble complex with water insoluble polymers for the purpose of taste masking.

CCCc1nn(C)c2c(=O)[nH]c(-c3cc(S(=O)(=O)N4CCN(C)CC4)ccc3OCC)nc12 [sildenafil]
bioavailability: enhance the bioavailability
